In patent US10752598B2, “Aryldiazepine derivatives as RSV inhibitors” (Enanta Pharmaceuticals, Inc., priority 2017, dated 2020):

Tested on: Human RSV-A (“Long” strain)
Test: RSV-A in vitro cytoprotection (CPE) assay in HEp-2 cells, ATPlite readout
Format: cell-based
Settings: human respiratory syncytial virus, 96 h, 4-day incubation, ATPlite cell viability
Text: RSV is a single stranded negative sense RNA virus that causes respiratory tract infections which can be dangerous to infants, the elderly, and immunosuppressed individuals. Currently there is no vaccine, and therapeutic options are both costly and of limited effectiveness. These approved treatments are Ribavirin, and Palivizumab/Synagis (a monoclonal antibody). RSV has two genotypes, A and B, which differ primarily in the structure of the virus' surface “G” attachment protein. Our current primary screen focusses on RSV-A and uses an in vitro cytoprotection assay where compounds are added in 2-fold dilutions to cells which are then subjected to fully replicative viral particles. Cell viability is measured several days later along with separate measurements of compound cytotoxicity. This report focuses on the results of our most recent screening of compounds.
HEp-2 cells, (originally derived from tumors grown in irradiated-cortisonised weanling rats that had been injected with epidermoid carcinoma tissue from a person's larynx, but later found to be indistinguishable from HeLa cells by PCR DNA analysis), were used for the culturing of genotype A, “Long” strain RSV. Flasks were inoculated with RSV and viral stocks were collected once cytopathic effect (CPE) was greater than 90%. Viral stocks in 25% sucrose media were snap frozen using liquid nitrogen to increase viral stability. Viral stock titers were quantified by tissue culture infectious dose 50% (TCID50) using 8,000 cells per well and 3-fold viral dilutions across a 96-well plate, cultured for 4 days.
Following extensive parameter testing, the final assay is run as follows: HEp-2 cells are seeded into the inner 60 wells of a 96-well plate at 8,000 cells per well in a volume of […] Growth Media (DMEM without phenol red, 1% L-Glut, 1% Penn/Strep, 1% nonessential amino acids, 10% FBS). 2-fold serial dilutions of control and test compounds are added to the wells in duplicate in a total volume of 25 μL. Viral stock is then added to the wells in a volume of 25 μL, bringing the total volume of each well to 100 μL. Each 96-well plate has a control column of 6 wells with cells and virus but no compound (negative control, max CPE), a column with cells but no compound or virus (positive control, minimum CPE), and a column with no cells or virus or compound (background plate/reagent control). The control wells with cells but no virus are given an additional 25 uL of growth media containing an equal quantity of sucrose as those wells receiving the viral stock in order to keep consistent in media and volume conditions. The outer wells of the plate are filled with 125 μL of growth media to act as a thermal and evaporative moat around the test wells. Following a 4-day incubation period, the plates are read using ATPlite (50 uL added per well), which quantifies the amount of ATP (a measure of cell health) present in each well. Assay plates are read using the Envision luminometer. […] EC50 ranges are as follows: A<2 μM; B 2-5 μM; C>5 μM.

SMILES	EC50
O=C1Nc2ccccc2N(c2ccccc2)C[C@@H]1Nc1nnc(-c2ccccc2)o1 [Example 1, (S)-5-phenyl-3-((5-phenyl-1,3,4-oxadiazol-2-yl)amino)-1,3,4,5-tetrahydro-2H-benzo[b][1,4]diazepin-2-one]	> 5 µM
O=C1Nc2ccccc2N(c2ccccc2)C[C@@H]1Nc1nc2ccccc2o1 [Example 2, (S)-3-(benzo[d]oxazol-2-ylamino)-5-phenyl-1,3,4,5-tetrahydro-2H-benzo[b][1,4]diazepin-2-one]	> 5 µM
O=C(Nc1ccccc1)N[C@H]1CN(c2ccccc2)c2ccccc2NC1=O [Example 3]	> 5 µM
O=C(N[C@H]1CN(c2ccccc2)c2ccccc2NC1=O)c1ccccc1 [Example 4, (S)—N-(4-oxo-1-phenyl-2,3,4,5-tetrahydro-1H-benzo[b][1,4]diazepin-3-yl)benzamide]	> 5 µM
O=C1Nc2ccccc2N(c2ccccc2)C[C@@H]1Nc1nnc(-c2ncc(C(F)(F)F)cc2N2CCOCC2)o1 [Example 5, (S)-3-((5-(3-morpholino-5-(trifluoromethyl)pyridin-2-yl)-1,3,4-oxadiazol-2-yl)amino)-5-phenyl-1,3,4,5-tetrahydro-2H-benzo[b][1,4]diazepin-2-one]	< 2 µM
O=C1Nc2ccccc2N(c2ccccc2)C[C@@H]1Nc1nnc(-c2cccnc2N2CCOCC2)o1 [Example 6]	2 to 5 µM
O=C1Nc2ccccc2N(c2ccccc2)C[C@@H]1Nc1nnc(-c2ncc(C3CC3)cc2N2CCOCC2)o1 [Example 7]	< 2 µM
COCCNc1cc(C(F)(F)F)cnc1-c1nnc(N[C@H]2CN(c3ccccc3)c3ccccc3NC2=O)o1 [Example 8]	> 5 µM
Cc1ccc(-c2nnc(N[C@H]3CN(c4ccccc4)c4ccccc4NC3=O)o2)o1 [Example 9]	> 5 µM
O=C1Nc2ccccc2N(c2ccccc2)C[C@@H]1Nc1nnc(-c2cn(C3CCCC3)nc2N2CCOCC2)o1 [Example 10]	< 2 µM
O=C1Nc2ccccc2N(c2ccccc2)C[C@@H]1Nc1nnc(-c2ccc(F)cc2)o1 [Example 11]	> 5 µM
O=C1Nc2ccccc2N(c2ccccc2)C[C@@H]1Nc1nnc(-c2ccc(N3CCOCC3)cc2F)o1 [Example 12]	> 5 µM
O=C1Nc2ccccc2N(c2ccccc2)C[C@@H]1Nc1nnc(-c2cn(-c3ccccn3)nc2N2CCOCC2)o1 [Example 13]	2 to 5 µM
O=C1Nc2ccccc2N(c2ccccc2)C[C@@H]1Nc1nnc(-c2nc(C(F)(F)F)sc2N2CCOCC2)o1 [Example 14, (S)-3-((5-(5-morpholino-2-(trifluoromethyl)thiazol-4-yl)-1,3,4-oxadiazol-2-yl)amino)-5-phenyl-1,3,4,5-tetrahydro-2H-benzo[b][1,4]diazepin-2-one]	< 2 µM
O=C1Nc2ccccc2N(c2ccccc2)C[C@@H]1Nc1nnc(-c2nc(C3CC3)sc2N2CCOCC2)o1 [Example 15]	< 2 µM
O=C1Nc2ccccc2N(c2ccccc2)C[C@@H]1Nc1nnc(-c2nc(-c3cccnc3)sc2N2CCOCC2)o1 [Example 16]	< 2 µM
O=C1Nc2ccccc2N(c2cc(F)c(F)c(F)c2)C[C@@H]1Nc1nnc(-c2ncc(C(F)(F)F)cc2N2CCOCC2)o1 [Example 17]	> 5 µM
O=C1Nc2ccccc2N(c2ccccc2)C(=O)C1Nc1nnc(-c2ccccc2)o1 (centres unmarked) [Example 19]	> 5 µM
O=C(Nc1ccccc1)NC1C(=O)Nc2ccccc2N(c2ccccc2)C1=O (centres unmarked) [Example 20]	> 5 µM
O=C(NC1C(=O)Nc2ccccc2N(c2ccccc2)C1=O)c1ccccc1 (centres unmarked) [Example 21]	> 5 µM
